Measurements as given in patent US11446301B2, “Quinoline analogs as phosphatidylinositol 3-kinase inhibitors” (NANJING ZHENGXIANG PHARMACEUTICALS CO., LTD., priority 2016, dated 2022).
Like-named read-outs stand apart in the source and are kept apart here.

Assays:
[1] = tested on: human hepatocytes; assay: Hepatocyte stability (parent disappearance in cryopreserved hepatocytes); type: in vitro ADME
Method: The hepatocyte assay was used to evaluate the metabolic stability of test articles (TA) following incubation in cryopreserved hepatocytes by monitoring parent drug disappearance via […]. The TA with 1% final DMSO concentration was incubated with 0.5 million hepatocytes/ml at 1 μM substrate in duplicate. The incubation was carried out at 37° C. with 5% CO2 and saturating humidity. Samples were taken at 0, 1, 2, and 3 hours to monitor the disappearance of TA and a half-life (t ½) was determined. Table 2 below summarizes the t½ values (e.g. t ½) collected from this Example.

[2] = PK profiles after iv and PO dosing in rats; type: in vivo; conditions: oral dose 10 mg/kg, SD rats, vs idelalisib
Method: Compound 2 was dosed by both iv and PO in the rats.

[3] = IV; data from idelalisib NDA filing; cited from earlier work
[4] = cited from earlier work

C[C@H](Nc1nc(N)nc(N)c1C#N)c1cc2ccc(F)cc2nc1-c1ccccc1S(C)(=O)=O (stereo in doubt) [Compound 4, (S)-2,4-Diamino-6-{1-[7-fluoro-2-(2-methanesulfonyl-phenyl)-quinoli-n-3-yl]-ethylamino}-pyrimidine-5-carbonitrile]
improved stability in human hepatocytes (longer half-life) than compound E ([1]; fold vs compound E): 1.3 ×

C[C@H](Nc1nc(N)nc(N)c1C#N)c1cc2ccc(F)cc2nc1-c1ccccn1 (stereo in doubt) [Compound 2, (S)-2,4-Diamino-6-[1-(7-fluoro-2-pyridin-2-yl-quinolin-3-yl)-ethyla-mino]-pyrimidine-5-carbonitrile]
Oral exposure corrected with dose (AUCinf/dose) higher than that of idelalisib [2]: 20 fold

C[C@H](Nc1nc(N)nc(N)c1C#N)c1cc2ccc(F)cc2nc1-c1ccccc1 [Compound 1, (S)-2,4-diamino-6-[1-(7-fluoro-2-phenyl-quinolin-3-yl)-ethylamino]-pyrimidine-5-carbonitrile]
improved stability in human hepatocytes (longer half-life) than compound D ([1]; fold vs compound D): 2.7 ×

CC[C@H](Nc1ncnc2[nH]cnc12)c1nc2cccc(F)c2c(=O)n1-c1ccccc1 [Idelalisib, idelalisib]
Tmax [3]: 3.6 min | Fatal and/or serious hepatotoxicity, patients ([4]; idelalisib in combination trials): 11% | Fatal and/or serious hepatotoxicity, patients ([4]; idelalisib monotherapy): 18%
